Measured values from patent US20220046923A1, “HERBICIDAL CINNOLINIUM COMPOUNDS” (SYNGENTA CROP PROTECTION AG, priority 2018, published 2022).

Key:
Assay in all cases: Post-emergence efficacy, glasshouse spray test
Type in all cases: in vivo
[1] = test system: Chenopodium album (CHEAL); conditions: Chenopodium album, post-emergence, 312 h, evaluated after 13 days, read-out: Control of weed species CHEAL after post-emergence application (100=total damage to plant; 0=no damage to plant); for pest or weed control at 1000 g/ha: application rate 1000 g/Ha; for pest or weed control at 500 g/ha: application rate 500 g/Ha
In short: (§1)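 Plants grown 14 days in glasshouse (24/16 °C day/night, 14 h light, 65% humidity), then sprayed post-emergence with formula (I) formulated in IF50 and diluted in 0.25% or 1% Empicol ESC70 + 1% ammonium sulphate. Damage scored visually 13 days after spraying (0 = none, 100 = total).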

[2] = test system: Ipomoea hederacea (IPOHE); conditions: Ipomoea hederacea, post-emergence, 312 h, evaluated after 13 days, read-out: Control of weed species IPOHE after post-emergence application (100=total damage to plant; 0=no damage to plant); for pest or weed control at 1000 g/ha: application rate 1000 g/Ha; for pest or weed control at 500 g/ha: application rate 500 g/Ha
In short: as §1

[3] = test system: Digitaria sanguinalis (DIGSA); conditions: Digitaria sanguinalis, post-emergence, 312 h, evaluated after 13 days, read-out: Control of weed species DIGSA after post-emergence application (100=total damage to plant; 0=no damage to plant); for pest or weed control at 1000 g/ha: application rate 1000 g/Ha; for pest or weed control at 500 g/ha: application rate 500 g/Ha
In short: as §1

Lolium perenne (LOLPE) = conditions: Lolium perenne, post-emergence, 312 h, evaluated after 13 days, read-out: Control of weed species LOLPE after post-emergence application (100=total damage to plant; 0=no damage to plant); for pest or weed control at 1000 g/ha: application rate 1000 g/Ha; for pest or weed control at 500 g/ha: application rate 500 g/Ha
In short: as §1

Eleusine indica (ELEIN) = conditions: Eleusine indica, post-emergence, 312 h, evaluated after 13 days, read-out: Control of weed species ELEIN after post-emergence application (100=total damage to plant; 0=no damage to plant); for pest or weed control at 1000 g/ha: application rate 1000 g/Ha; for pest or weed control at 500 g/ha: application rate 500 g/Ha
In short: as §1

[4] = test system: Echinochloa crus-galli (ECHCG); conditions: Echinochloa crus-galli, post-emergence, 312 h, evaluated after 13 days, read-out: Control of weed species ECHCG after post-emergence application (100=total damage to plant; 0=no damage to plant); for pest or weed control at 1000 g/ha: application rate 1000 g/Ha; for pest or weed control at 500 g/ha: application rate 500 g/Ha
In short: as §1

[5] = test system: Euphorbia heterophylla (EPHHL); conditions: Euphorbia heterophylla, post-emergence, 312 h, evaluated after 13 days, read-out: Control of weed species EPHHL after post-emergence application (100=total damage to plant; 0=no damage to plant); for pest or weed control at 1000 g/ha: application rate 1000 g/Ha; for pest or weed control at 500 g/ha: application rate 500 g/Ha
In short: as §1

[6] = test system: Amaranthus palmeri (AMAPA); conditions: Amaranthus palmeri, post-emergence, 312 h, evaluated after 13 days, read-out: Control of weed species AMAPA after post-emergence application (100=total damage to plant; 0=no damage to plant); for pest or weed control at 1000 g/ha: application rate 1000 g/Ha; for pest or weed control at 500 g/ha: application rate 500 g/Ha
In short: as §1

Setaria faberi (SETFA) = conditions: Setaria faberi, post-emergence, 312 h, evaluated after 13 days, read-out: Control of weed species SETFA after post-emergence application (100=total damage to plant; 0=no damage to plant); for pest or weed control at 1000 g/ha: application rate 1000 g/Ha; for pest or weed control at 500 g/ha: application rate 500 g/Ha
In short: as §1

SMILES	pest or weed control at 1000 g/ha [1] [%]	pest or weed control at 1000 g/ha [2] [%]	pest or weed control at 1000 g/ha [3] [%]	pest or weed control at 1000 g/ha (Lolium perenne (LOLPE)) [%]	pest or weed control at 1000 g/ha (Eleusine indica (ELEIN)) [%]	pest or weed control at 1000 g/ha [4] [%]	pest or weed control at 1000 g/ha [5] [%]	pest or weed control at 1000 g/ha [6] [%]	pest or weed control at 1000 g/ha (Setaria faberi (SETFA)) [%]	pest or weed control at 500 g/ha [1] [%]	pest or weed control at 500 g/ha [2] [%]	pest or weed control at 500 g/ha [3] [%]	pest or weed control at 500 g/ha (Lolium perenne (LOLPE)) [%]	pest or weed control at 500 g/ha (Eleusine indica (ELEIN)) [%]	pest or weed control at 500 g/ha [4] [%]	pest or weed control at 500 g/ha [5] [%]	pest or weed control at 500 g/ha [6] [%]	pest or weed control at 500 g/ha (Setaria faberi (SETFA)) [%]
O=S(=O)([O-])CC[n+]1ccc2ccc(Cl)cc2n1 [Compound A94]	90	40	50	40	90	40	100	100	50	–	–	–	–	–	–	–	–	–
N#Cc1cccc2cc[n+](CCS(=O)(=O)[O-])nc12 [Compound A110, 2-(8-cyanocinnolin-2-ium-2-yl)ethanesulfonate]	–	–	–	–	–	–	–	–	–	30	40	20	0	20	20	60	70	20
Cc1c[n+](CCC(=O)O)nc2ccccc12 [Compound A64]	70	20	50	10	50	40	70	70	30	–	–	–	–	–	–	–	–	–
Cc1ccc2cc[n+](CCS(=O)(=O)[O-])nc2c1 [Compound A87]	100	70	40	40	80	40	100	100	50	–	–	–	–	–	–	–	–	–
O=S(=O)([O-])CC[n+]1ccc2ccccc2n1 [Compound A24, 2-cinnolin-2-ium-2-ylethanesulfonate]	60	80	80	40	80	40	70	60	60	–	–	–	–	–	–	–	–	–
Cc1cc(C)c2n[n+](CC(=O)OC(C)C)cc(C)c2c1 [Compound A6, isopropyl 2-(4,6,8-trimethylcinnolin-2-ium-2-yl)acetate chloride]	20	10	10	10	30	10	30	40	10	–	–	–	–	–	–	–	–	–
COC(=O)C[n+]1ccc2cc(OC)ccc2n1 [Compound A60]	0	30	30	10	40	20	10	0	10	–	–	–	–	–	–	–	–	–
Cc1cccc2n[n+](CCS(=O)(=O)[O-])ccc12 [Compound A97]	–	–	–	–	–	–	–	–	–	90	10	50	10	70	30	80	100	60
Cc1c[n+](CCS(=O)(=O)[O-])nc2ccccc12 [Compound A11]	100	80	40	0	80	60	80	100	70	–	–	–	–	–	–	–	–	–
N[C@H](CC[n+]1ccc2ccccc2n1)C(=O)O [Compound A12, [(1R)-1-carboxy-3-cinnolin-2-ium-2-yl-propyl]ammonium 2,2,2-trifluoroacetate]	70	60	80	40	90	40	50	80	50	–	–	–	–	–	–	–	–	–
COC(=O)c1ccc2n[n+](CCS(=O)(=O)[O-])ccc2c1 [Compound A100]	–	–	–	–	–	–	–	–	–	30	30	10	0	10	10	40	30	20
COc1c[n+](CCS(=O)(=O)[O-])nc2ccccc12 [Compound A38]	40	30	20	10	10	30	30	20	10	–	–	–	–	–	–	–	–	–
